The values below come from patent US20220144847A1, “HETEROCYCLIC COMPOUND, PHARMACEUTICAL COMPOSITION COMPRISING SAME, PREPARATION METHOD THEREFOR, AND USE THEREOF” (Sichuan Kelun-Biotech Biopharmaceutical Co., Ltd., priority 2019, published 2022).

Where two headings read alike, the source gives them in different places.

A short description of data set [1]: Pharmacokinetics and tissue distribution of compounds in rats. Type of data set: in vivo. The note with it: male, SD, rat, PO 5 mg/kg; for AUC(0-t): read-out: AUC AUClast; for Cmax: read-out: Peak concentration Cmax; for Kp: read-out: T/P Ratio of AUClast in tissue to plasma; for Tmax: read-out: Time to peak concentration Tmax. As for the experimental part: By intragastric administration (PO) of BLU-667 (prepared according to Example 5 of WO2017/079140A1) and Compound 17 to male SD rats respectively, the plasma concentrations and the tissue concentrations of BLU-667 and Compound 17 in brains, lungs and thyroid of rats were determined to investigate the pharmacokinetic characteristics. The dosage of administration by PO was 5 mg/kg, and the solvent was 0.5% MC (methylcellulose). With administration by PO, blood samples were collected at different time points (0 h before administration, and 0.25 h, 0.5 h, 1 h, 2 h, 4 h, 6 h, 8 h, and 24 h after administration). The blood samples were anticoagulated with dipotassium edetate, and centrifuged to provide plasma samples, which were stored at −80° C. Rats were sacrificed by exsanguination from abdominal aorta at 0.5 h, 2 h, 8 h, and 24 h after PO administration. Brain, lung and thyroid were collected, washed, and homogenized with normal saline at a certain ratio, to provide tissue samples which were stored at −80° C. The plasma samples and tissue samples were processed with precipitated protein and then analyzed by LC-MS/MS. The pharmacokinetic parameters were computed using WinNonlin 6.3 software and using a non-compartmental model.

For data set [2], the system named is human medullary thyroid carcinoma TT cells. The data set is described as follows: Efficacy test in mice, subcutaneous xenograft tumor of TT cells. The class given is in vivo, Balb/c-nu mouse. The note with it: 5 mg/kg, PO, BID; TT nude mouse xenograft. As for the experimental part:
Experimental purpose: To evaluate the in vivo efficacy of Compound 17 and BLU-667 in a Balb/c-nu mouse model with a subcutaneous xenograft tumor of human medullary thyroid carcinoma TT cells.
Drug preparation: Compound 17 was dissolved in 0.1 M aqueous solution of H3PO4, and BLU-667 was dissolved in 0.1 M aqueous solution of HOAc, to prepare clear solutions (pH: about 4.0). An aqueous solution of H3PO4 at a pH of about 4.0 was used for the solvent control group. The mode of administration was PO, BID.
Tumor measurement: The tumor diameter was measured with a vernier caliper twice a week. The computing formula of the tumor volume is: V=0.5×a×b^2, where a represents a long diameter of the tumor, and b represents a short diameter of the tumor. Evaluation of tumor growth inhibition rate (TGI (%)) for tumor inhibition efficacy of the compounds: TGI (%)=[(1-(mean tumor volume of a treatment group at the end of drug administration-mean tumor volume of the treatment group at the commencement of drug administration))/(mean tumor volume of a solvent control group at the end of treatment-mean tumor volume of the solvent control group at the commencement of treatment)]×100%.
Statistical analysis: Prism Graphpad5.0 software was used for statistical analysis based on the relative tumor volume at the end of the experiment. The comparison between multiple groups was analyzed by two-way ANOVA, and p<0.05 was considered as a significant difference.
Experimental results: In the TT nude mouse xenograft model of human medullary thyroid carcinoma, Compound 17 has a significant […] anti-tumor effect at a dose of 5 mg/kg. […] Relative tumor growth rate T/C (%)=TRTV/CRTV×100%, where TRTV is the mean relative tumor volume of the test compound group, CRTV is the relative tumor volume of the solvent control group; and the relative tumor volume RTV=Vt/V0, where V0 is the mean tumor volume at the commencement of the administration, and Vt is the mean tumor volume measured on day t after the administration.

Consider `CO[C@]1(C(=O)N[C@@H](C)c2ccc(-n3cc(F)cn3)nc2)CC[C@H](c2nc(C)cc(Nc3cc(C)[nH]n3)n2)CC1` [BLU-667, reference compound], for which, in data set [1] (brain), the AUC(0-t) turned out to be 157 ng·h/mL, the Cmax is 30.8 ng/mL, the Kp worked out at 0.018 and the Tmax amounted to 30 min. In data set [1] (lung), the AUC(0-t) was 25100 ng·h/mL, the Cmax turned out to be 3570 ng/mL, the Kp was 2.9 and the Tmax was found to be 30 min. In addition, in data set [1] (plasma), the AUC(0-t) was 8650 ng·h/mL, the Cmax stood at 1490 ng/mL, the Kp is 1 and the Tmax amounted to 60 min. In data set [1] (thyroid), the AUC(0-t) came out at 6350 ng·h/mL, the Cmax was 888 ng/mL, the Kp came to 0.73 and the Tmax worked out at 30 min. Moreover, in data set [2], the “Relative tumor growth rate T/C” value was found to be 33.62% and the “Tumor growth inhibition rate TGI” value was 88.82%.
